“Also recorded” adds a separate entry of the source. Structures can show the parent of a compound that is named as a salt.
Experiments:
H295R cells [1] = assay: ATP levels of H295R cells (CellTiter-Glo luminescence); type: cell-based, human
Description: (§1) To measure ATP levels and reducing potentials of H295R cells, these cells were cultured in 96-well flat bottom cell culture plates (BD Biosciences) plated at 50,000 cells in 100 μl. The cells were plated in DMEM media without glucose (GIBCO 11966)+10 mM galactose+5 mM sodium-HEPES+2 mM glutamine (addition)+1 mM sodium pyruvate+100 U/ml penicillin/streptomycin+either 0% or 5% fetal calf serum. After overnight (16-20 h) incubation, 20 μl of medium containing 5% fetal calf serum as well as the aliquots of ATR-101 required to produce the final concentrations were added to the cells. To measure ATP levels, 100 μl of the CellTiter-Glo® (Promega Corp., Madison, Wis.) reagent was added to lyse the cells at the indicated times, and luciferin luminescence was measured to determine the amount of ATP in the lysate. To measure reducing activity, PrestoBlue® Cell Viability reagent (Life Technologies Corp.) was added to the cells immediately after ATR-101. The cells were incubated at 37° C. with CO2, and resorufin fluorescence was measured at the times indicated.
To investigate the mechanism whereby ATR-101 kills cells in culture, the effects of cholesterol depletion on the ATP levels of H295R cells cultured in the presence of ATR-101 was investigated. The cells were cultured in the presence of methyl-β-cyclodextrin (MβCD), which can sequester cholesterol and thereby deplete free cholesterol in the cells. […] MβCD increased the concentration of ATR-101 required for half-maximal depletion of ATP levels more than 4-fold.
To determine if the effect of MβCD on ATR-101 cytotoxicity was due to cholesterol depletion, H295R cells were cultured in the presence of the equivalent amount of MβCD complexed with cholesterol (FIG. 12C). […] The protection of H295R cells from the cytotoxicity of ATR-101 by culture in the presence of MβCD was therefore due to cholesterol depletion in these cells.

[2] = Tissue distribution of ATR-101 in dogs; type: in vivo
Description: Tissue distribution of ATR-101 in 3 rats and 3 dogs was examined. ATR-101 concentrations were measured in plasma, red blood cells, adrenal gland, liver, kidney, skeletal muscle, ovary, subcutaneous fat, and cerebral spinal fluid. […] ATR-101 concentrations in rats were higher in adrenal gland (˜2×) and ovary (˜1.4×) than in plasma. […] ATR-101 concentrations in dogs were similar in adrenal gland and plasma.

adrenal gland = assay: Adrenal gland histopathology in dogs; type: in vivo; conditions: 300 mg/kg/day for 28 days; day 28; hydrochloride
Description: Left and right adrenal glands from dogs treated with a high dose 300 mg/kg/day of ATR-101 for 28 days and control animals were collected at necropsy and fixed in 10% neutral buffered formalin, processed by routine paraffin technique, sectioned longitudinally, and stained with hematoxylin and eosin for routine light microscopy (FIGS. 15A-E).

H295R cells [3] = assay: Reducing activity of H295R cells (resazurin reduction, PrestoBlue); type: cell-based, human
Description: as §1
Cellular reducing activity was determined by measuring resazurin reduction using the PrestoBlue® Cell Viability Reagent (Invitrogen). […] Low to moderate concentrations of ATR-101 increased reducing activity, but had little effect on ATP levels. High concentrations of ATR-101 reduced both reducing activity and ATP levels, presumably because of a decrease in cell viability.
To determine if the culture of H295R cells in the presence of MβCD altered ATR-101 entry into cells, the effects of MβCD on ATR-101 induced changes in reducing activity were examined (FIG. 12D-F). Culture in the presence of MβCD alone had little effect on the reducing activity of the cells (FIG. 12E). […] The reduction in reducing activity was likely related to the reduction in ATP levels caused by MβCD complexed with cholesterol.

[4] = tested on: ACC-derived cell line H295R xenografts; assay: ACC xenograft establishment in SCID mice injected with H295R cells (Example 6); type: in vivo
Description: FIG. 7 depicts the effects of ATR-101 administration on ACC xenograft establishment. Randomized cohorts of 10 mice injected with H295R cells were administered 700 mg/kg/day ATR-101 for 4 days followed by 300 mg/kg/day ATR-101 or vehicle by gavage beginning 14 days after cell injection. The sizes of the xenografts were measured three times each week.
To investigate the potential therapeutic benefit of ATR-101 in the establishment of ACC xenografts in a mouse model of ACC, ACC-derived cell line H295R was injected in SCID mice (6-7 week males). 1×10^8 cells in 0.2 ml DMEM were injected under the skin in the right dorsal flank regions of SCID mice. Two weeks after injection, the mice were randomized in groups of 10. ATR-101 was administered at 700 mg/kg/day for 4 days, followed by 300 mg/kg/day by oral gavage in 10% DMSO, 0.5% CMC, 0.9% NaCl, 0.2% Tween, pH 3. Control mice were administered vehicle. The tumor size was measured using calipers three times a week. Urinary cortisol was measured at various time points after start of ATR-101 or vehicle administration.

CC(C)c1cccc(C(C)C)c1NC(=O)NCC1(c2ccc(N(C)C)cc2)CCCC1 [ATR-101, N-(2,6-bis(1-methylethyl)phenyl)-N′-((1-(4-(dimethylamino)phenyl)cyclopentyl)-methyl)urea hydrochloride]
reduction of ATP luminescence signal (H295R cells [1]; 64 μM, 4 hours): about 90%
increase by MβCD of ATR-101 concentration required for half-maximal depletion of ATP levels (H295R cells [1]; 2 mM MβCD): more than 4 fold
ATP levels of cells cultured in presence of MβCD (H295R cells [1]; 2 mM MβCD, up to 32 μM ATR-101): unaffected
EC50 (H295R cells [1]; Homo sapiens, NCI-H295R, 4 hours, read-out: concentration with half-maximal effect on ATP luminescence signal): 16 µM
ATP level in cells cultured with MβCD complexed with cholesterol (H295R cells [1]; MβCD (2 mM) complexed with cholesterol): further reduction
blood-brain barrier crossing ([2]; dogs): does not appear to cross the blood-brain barrier
adrenal gland concentration compared with plasma ([2]; female dogs, 3 mg/kg/day for 7 days, N=3): similar
adrenal gland histopathology findings (adrenal gland): fibrosis; also recorded: vacuolation; also recorded: cortical atrophy
reducing activity in cells cultured in presence of MβCD (H295R cells [3]; 2 mM MβCD): larger increase in reducing activity
resazurin fluorescence signal, higher concentrations (H295R cells [3]; ATR-101 concentrations higher than 8 μM): reduced the fluorescence
reducing activity in cells cultured with MβCD complexed with cholesterol (H295R cells [3]; MβCD complexed with cholesterol, in absence and presence of ATR-101): lower reducing activities
resazurin fluorescence signal, low concentrations (H295R cells [3]; up to 8 μM ATR-101): increased the fluorescence signal
body weight versus vehicle ([4]; 700 then 300 mg/kg/day): no significant difference
median time until xenograft formation versus vehicle-treated group ([4]; 700 then 300 mg/kg/day): more than twice as long
survival ([4]; 100 days after injection): All the mice were alive
mice that developed palpable xenografts ([4]; of 10 mice, 700 mg/kg/day 4 days then 300 mg/kg/day by gavage from 14 days after injection, vehicle 7 of 10): 2
xenograft size ([4]; the 2 xenografts, 100 days after injection): < 500 mm^3

Source: patent US9877937B2, “Compounds and methods for treating aberrant adrenocortical cell disorders” (Millendo Therapeutics, Inc., priority 2012, dated 2018)
